Measurements reported in patent US11752195B2, “Compositions and methods of use of synthetic peptides with Mycobacterium abscessus inhibitory activity” (priority 2021, dated 2023).
pIC50: −log10 of the molar value. Values after ≈ are worked out from the molar mass of the structure shown. Read-outs that look alike come from different tables or passages of the source. Peptide text beside a SMILES is read from it.

Experiments:
[1] = system: Mabs 19977S (Mabs ATCC 19977 smooth morphotype); experiment: Growth inhibition screen with unpurified peptides in M7H9, MHB, CAMHB; assay type: cell-based, Mycobacterium abscessus; details: unpurified peptide 100 μM
Experimental: (§1) Mabs ATCC 19977 smooth morphotype (Mabs 19977S) cells were cultured at 37° C. in Middlebrook 7H9 supplemented with albumin, dextrose, and catalase (ADC) (10%), Tween 80 (0.05%), and glycerol (0.2%) (herein referred to as M7H9). Mabs 19977S was exposed to clarithromycin (8 μg/ml) in M7H9 for 24 h at 37° C., subjected to serial dilutions and plated on Middlebrook 7H10 agar supplemented with oleic acid, albumin, dextrose, and catalase (OADC) (herein referred to as M7H10). After 5 d incubation at 37° C., a single, isolated colony displaying a rough morphotype (Mabs 19977R) was detected, grown, and stored at −70° C. Mabs 19977S and Mabs 19977R were grown for approximately 32 h at 37° C., diluted 1:100 in fresh, pre-warmed M7H9, and grown for an additional 14 h until the cultures reached early-to-mid-logarithmic phase (OD600=0.2-0.3).
(§2) Bacteria grown in M7H9, MHB, and cation-adjusted MHB (CAMHB) were used to identify unpurified peptides with inhibitory activity against Mabs 19977S and Mabs 19977R. Peptides (50-65% purity) were synthesized by Sigma Aldrich (St. Louis, Mo.) PEPscreen Custom Peptide Libraries. Mabs ATCC 19977S and ATCC 19977R mid-logarithmic phase cultures were centrifuged (3,715×g) for 2 min, washed in pre-warmed M7H9, re-suspended in M7H9, MHB, or CAMHB, and diluted to 10^6 CFU/ml. In a 96-well polystyrene microtiter plate, media (M7H9, MHB, or CAMHB), unpurified peptides (100 μM or 10 μM), ethylenediaminetetraacetic acid (EDTA) (100 μM), and cells (Mabs 19977S or Mabs 19977R) (10^5 CFU/ml) were added. EDTA was added to determine if metal ion chelation would alter peptide activity. Clarithromycin (4 μg/ml) was used as an antibiotic positive control. The 96-well microtiter plates were statically incubated at 37° C. for 72 h. The OD600 was measured every 24 h using a SpectraMax M2 microplate reader (Molecular Devices, San Jose, Calif., USA). Peptides that reduced Mabs growth by ≥50%, when compared to the growth control OD600, were considered active.
(§3) In culture medium with cation supplementation (CAMHB), ASU2060 (100 μM) had activity against both morphotypes when EDTA was added (FIG. 2F). […] There were no peptides with inhibitory activity in CAMHB without EDTA (FIG. 2E).

[2] = system: Mabs 19977R (rough morphotype); experiment: as above; assay type: cell-based, Mycobacterium abscessus; details: unpurified peptide 100 μM
Experimental: as §1, §2, §3

[3] = system: Mabs 19977R; details: 96 h
Experimental: (§4) In order to determine effects on Mabs viability, microdilution antimicrobial assays were performed in MHB.

[4] = system: Mabs 19977S; details: purified peptide, MHB with EDTA (100 μM), 96 h, 37° C.
Experimental: as §4

[5] = system: human red blood cell (hRBC); experiment: Human red blood cell (hRBC) hemolytic assay; assay type: cell-based
Experimental: To determine if the purified, Mabs inhibitory peptides were toxic, human red blood cell (hRBC) hemolytic assays were performed. Peptides (at 1×, 2×, and 4× their respective Mabs 19977S MICs) were added to 4% hRBC in saline and statically incubated for 1 h or 18 h at 37° C. […] Following incubation, the peptide-hRBC mixtures and the 1% Triton X-100 positive controls were centrifuged for 1 min at 1,000×g to pellet the intact hRBC. The supernatant for each experimental mixture and control was removed, and OD475 measurements were recorded to determine the percentage of lysed hRBC. The percentage of hemolytic activity was normalized by comparing the supernatant absorbance of all conditions tested to an equivalent number of hRBC lysed with 1% Triton X-100 (Eq. 1) (50).

[6] = system: E. coli clinical isolates
From the text: (approved by Mayo Clinic Biospecimen Subcommittee BIO00015462).

[7] = system: E. coli ATCC 25922; assay type: cell-based, Escherichia coli; details: ATCC 25922, 22 h
Experimental: Samples were serially diluted in MHB to ˜10^5 CFU/ml and added to a 96-well polystyrene plate prepared with ASU2060 (128-4 μM). After incubation for 22 h at 37° C., the OD600 was measured using a SpectraMax M2 microplate reader (Molecular Devices, San Jose, Calif., USA). Values were normalized to the medium blank (MHB) and E. coli (ATCC 25922) treated with nitrofurantoin at 64 μM.

[8] = purified peptide, MHB with EDTA (100 μM), 37° C.

| Compound | activity (growth reduced by ≥50% vs growth control OD600) ([1]; M7H9, with EDTA (100 μM)) | activity (growth reduced by ≥50% vs growth control OD600) ([1]; MHB, with EDTA) | activity (growth reduced by ≥50% vs growth control OD600) ([2]; M7H9, with EDTA (100 μM)) | activity (growth reduced by ≥50% vs growth control OD600) ([2]; MHB, with EDTA) | MIC [4] | further results |
| --- | --- | --- | --- | --- | --- | --- |
| CC(C)[C@H](NC(=O)[C@@H](CCCCN)NC(=O)[C@H](C)NC(=O)[C@@H](C)NC(=O)[C@@H](CCCCN)NC(=O)[C@H](CO)NC(=O)[C@@H](CCCNC(=N)N)NC(=O)CNC(=O)[C@H](CC(N)=O)NC(=O)[C@H](Cc1ccccc1)NC(=O)[C@@H](N)CCC(N)=O)C(=O)N[C@@H](CC(N)=O)C(=O)N[C@@H](Cc1ccccc1)C(=O)N[C@H](Cc1c[nH]c2ccccc12)C(=O)N[C@H](CCCNC(=N)N)C(=O)N[C@H](CCCCN)C(=O)N[C@H](C)C(=O)O [ASU2001, QFNGrSkaAkVNFwrka] (HELM PEPTIDE1{Q.F.N.G.[dR].S.[dK].[dA].A.[dK].V.N.F.[dW].[dR].[dK].[dA]}$$$$V2.0) | exhibited activity | maintained activity | exhibited activity | maintained activity | – | activity (growth reduced by ≥50% vs growth control OD600) ([2]; M7H9, without EDTA): exhibited activity |
| CC(C)C[C@@H](NC(=O)[C@@H](C)NC(=O)[C@@H](CCCCN)NC(=O)[C@@H](CCCNC(=N)N)NC(=O)[C@H](Cc1ccccc1)NC(=O)[C@H](CCC(N)=O)NC(=O)[C@H](CC(N)=O)NC(=O)[C@@H](NC(=O)[C@@H](CCCCN)NC(=O)[C@@H](CCCNC(=N)N)NC(=O)[C@H](C)NC(=O)[C@@H](CCCCN)NC(=O)[C@H](CO)NC(=O)[C@@H](CC(C)C)NC(=O)CNC(=O)[C@H](Cc1ccc(O)cc1)NC(=O)[C@H](N)CCCNC(=N)N)C(C)C)C(N)=O [ASU2009, rYGlSkArkVNQFrkal] (HELM PEPTIDE1{[dR].Y.G.[dL].S.[dK].A.[dR].[dK].V.N.Q.F.[dR].[dK].[dA].[dL].[am]}$$$$V2.0) | exhibited activity | maintained activity | exhibited activity | maintained activity | – | – |
| CC(C)C[C@@H](NC(=O)[C@@H](C)NC(=O)[C@H](CO)NC(=O)[C@@H](CCCCN)NC(=O)[C@@H](CCCNC(=N)N)NC(=O)[C@@H](CCCNC(=N)N)NC(=O)[C@H](Cc1ccccc1)NC(=O)[C@@H](CC(C)C)NC(=O)[C@H](CC(N)=O)NC(=O)[C@H](Cc1c[nH]cn1)NC(=O)[C@@H]1CCCN1C(=O)[C@H](C)NC(=O)[C@H](CO)NC(=O)[C@@H]1CCCN1C(=O)CNC(=O)[C@@H](NC(=O)[C@H](N)CCCNC(=N)N)C(C)C)C(N)=O [ASU2019] (HELM PEPTIDE1{[dR].V.G.P.S.A.P.H.N.[dL].F.[dR].[dR].[dK].S.[dA].[dL].[am]}$$$$V2.0; N-terminus and C-terminus assumed) | – | – | – | – | 256 µM (≈ 488 µg/mL) | pIC50 [3]: 4.09 to 4.12; relative hRBC toxicity among the six peptides [5]: the most toxicity |
| CC(C)C[C@@H](NC(=O)CNC(=O)[C@@H](Cc1c[nH]c2ccccc12)NC(=O)[C@@H](CCCNC(=N)N)NC(=O)[C@@H](N)CCC(N)=O)C(=O)N[C@@H](CO)C(=O)N[C@H](CC(C)C)C(=O)N[C@@H](C)C(=O)N1CCC[C@H]1C(=O)N[C@@H](Cc1ccc(O)cc1)C(=O)N[C@H](CCCCN)C(=O)N[C@@H](CC(N)=O)C(=O)N[C@@H](Cc1ccccc1)C(=O)N[C@H](CCCNC(=N)N)C(=O)N[C@H](CCCNC(=N)N)C(=O)N[C@H](CC(C)C)C(=O)N[C@@H](CO)C(N)=O [ASU2056, QrwGlSlAPYkNFrrlS] (HELM PEPTIDE1{Q.[dR].[dW].G.[dL].S.[dL].A.P.Y.[dK].N.F.[dR].[dR].[dL].S.[am]}$$$$V2.0; N-terminus and C-terminus assumed) | – | – | – | – | 32 µM (≈ 66.9 µg/mL) | pIC50 [3, 8]: 4.35; relative hRBC toxicity among the six peptides [5]: the least toxicity |
| CC(C)C[C@@H](NC(=O)[C@@H](C)NC(=O)CNC(=O)[C@@H](CC(C)C)NC(=O)[C@@H](CCCCN)NC(=O)[C@@H](CCCNC(=N)N)NC(=O)[C@@H](CCCNC(=N)N)NC(=O)[C@H](CC(N)=O)NC(=O)[C@H](Cc1ccc(O)cc1)NC(=O)[C@@H](CCCNC(=N)N)NC(=O)[C@H](C)NC(=O)[C@H](CO)NC(=O)[C@@H](CCCNC(=N)N)NC(=O)CNC(=O)[C@@H](N)Cc1ccc(O)cc1)C(=O)N[C@@H](CO)C(=O)NCC(=O)O [ASU2059, YGrSArYNrrklGalSG] (HELM PEPTIDE1{Y.G.[dR].S.A.[dR].Y.N.[dR].[dR].[dK].[dL].G.[dA].[dL].S.G}$$$$V2.0) | exhibited activity | maintained activity | exhibited activity | maintained activity | – | – |
| CC(C)C[C@@H](NC(=O)CNC(=O)[C@H](CO)NC(=O)[C@@H](CCCCN)NC(=O)[C@@H](CCCNC(=N)N)NC(=O)[C@@H](Cc1c[nH]c2ccccc12)NC(=O)[C@@H](CCCNC(=N)N)NC(=O)[C@H](Cc1ccccc1)NC(=O)[C@H](CC(N)=O)NC(=O)[C@H](Cc1ccc(O)cc1)NC(=O)[C@@H](CCCNC(=N)N)NC(=O)[C@H](C)NC(=O)[C@H](CO)NC(=O)[C@@H](Cc1c[nH]c2ccccc12)NC(=O)[C@@H](CCCNC(=N)N)NC(=O)CNC(=O)[C@@H](N)C(C)C)C(N)=O [ASU2060, VGrwSArYNFrwrkSGl] (HELM PEPTIDE1{V.G.[dR].[dW].S.A.[dR].Y.N.F.[dR].[dW].[dR].[dK].S.G.[dL].[am]}$$$$V2.0; N-terminus and C-terminus assumed) | – | – | – | – | 8 µM (≈ 17.1 µg/mL) | ASU2060 MIC ([6]; E. coli clinical isolate 23): 8 µM; ASU2060 MIC ([6]; E. coli clinical isolate 36): 8 µM; ASU2060 MIC ([6]; E. coli clinical isolate 45): 8 µM; ASU2060 MIC ([6]; E. coli clinical isolate 47): 8 µM; ASU2060 MIC ([6]; E. coli clinical isolate 97): 8 µM; ASU2060 MIC ([6]; E. coli clinical isolate 98): 8 µM; pIC50 [3, 8]: 4.89; MIC [7]: 4 µM (≈ 8.55 µg/mL) |
| Triton X-100 [reference compound] | – | – | – | – | – | hRBC lysis by positive control ([5]; Triton X-100 1%, 4% hRBC): complete hRBC lysis |
